Square brackets hold non-standard residues; d marks the D form. Ends that are not written are not given here.
What was measured:
[1] = tested on: Zucker fatty (fa/fa) female rats; assay: Acute oral administration, blood glucose; format: in vivo, rat
Method: Overnight fasted Zucker fatty (fa/fa) female rats were administered peptide 3 (ADD9903) by oral gavage at a concentration of 20 μmol/kg of body weight. Rats were then immediately anaesthetized with nembutal administered intraperitoneally in order to avoid variations arising due to activity of the rats. Blood samples were collected from the tail vein at time 0 min (immediately after oral gavage and before anaesthetic), 60 min, 120 min and 180 min, and analyzed for blood glucose by the glucose oxidation method using a YSI Model-2300 STAT glucose analyzer (Yellow Spring, Ohio). Six rats were analyzed for each of the control and treated groups.

[2] = tested on: adipose tissue; assay: Ex vivo glucose transport assay in adipose tissue of chronically treated mice; format: cell-based, mouse; details: after 14 days treatment
Method: (c) Glucose transport assay Glucose transport in adipose tissue extracted from saline-treated and chronically peptide 3-treated mice was analyzed by an ex vivo glucose uptake assay. Adipose tissues was harvested from mice which had received saline (n=5) or peptide 3 (n=4) in the IPGTT, and used for a glucose transport assay. Mice were sacrificed by a lethal injection of pentabarbitone to the heart. Epididymal fat from male mice or peritoneal fat from female mice was used. Adipose tissues were rinsed in saline and then sliced into even pieces for weight determination. Tissues were placed in flasks and incubated in 2 ml KRB buffer (pH 7.4) containing D-glucose (10 mM final concentration) with vigorous agitation at 37° C. for 2 h under an atmosphere of carbogen. All samples were then placed on ice to reduce glycolysis. Tissues were removed from flasks, and the remaining solutions were analyzed for glucose concentrations using a glucose analyzer. Glucose uptake by each tissue sample was calculated, and compared to tissue free buffer controls.

Arg-D-Ala-Phe-Phe-NH2 (R[dA]FF-NH2; N-terminus assumed; SMILES C[C@@H](NC(=O)[C@@H](N)CCCNC(=N)N)C(=O)N[C@@H](Cc1ccccc1)C(=O)N[C@@H](Cc1ccccc1)C(N)=O) [Peptide 3]
decrease in blood glucose, oral compared to intraperitoneal administration ([1]; at 120 min (P<0.005)): more profound decrease
time of maximal decrease in blood glucose ([1]; oral gavage 20 μmol/kg (P<0.005)): 120 min
blood glucose levels compared to control rats ([1]; oral gavage 20 μmol/kg, significant from 60 min (P<0.05)): significantly reduced
more glucose transported than adipose tissue from saline-treated mice [2]: 38%
glucose transport by adipose tissue ([2]; 10 mM D-glucose, 2 h, 37° C.): 1.67±0.18 nmol/mg tissue/h

— US20040054130A1, “Insulin potentiating peptides” (priority 2000, published 2004)
